ChEMBL document CHEMBL3044654, “Sensitivity of four isolates of Clonostachys rosea to pesticides used in the strawberry crop in Brazil” (2012)

Tests used:
Type in all cases: functional
Clonostachys rosea [1] = test: Toxicity against Bionectria ochroleuca I19 assessed as inhibition of mycelial growth at 0.003 to 0.020 mg/ml measured every 24 hr intervals over 192 hr
Clonostachys rosea [2] = test: Toxicity against Bionectria ochroleuca I60 assessed as inhibition of mycelial growth at 0.003 to 0.020 mg/ml measured every 24 hr intervals over 192 hr
Clonostachys rosea [3] = test: Toxicity against Bionectria ochroleuca I61 assessed as inhibition of mycelial growth at 0.003 to 0.020 mg/ml measured every 24 hr intervals over 192 hr
Clonostachys rosea [4] = test: Toxicity against Bionectria ochroleuca I62 assessed as inhibition of mycelial growth at 0.003 to 0.020 mg/ml measured every 24 hr intervals over 192 hr
Clonostachys rosea [5] = test: Toxicity against Bionectria ochroleuca assessed as inhibition of conidial germination at 0.003 to 0.020 ug/ml measured every 24 hr intervals over 192 hr
Clonostachys rosea [6] = test: Toxicity against Bionectria ochroleuca assessed as inhibition of mycelial growth at 0.003 to 0.020 ug/ml measured every 24 hr intervals over 192 hr
Clonostachys rosea [7] = test: Toxicity against Bionectria ochroleuca assessed as inhibition of conidial germination at 0.3 to 1.8 mg/ml measured every 24 hr intervals over 192 hr
Clonostachys rosea [8] = test: Toxicity against Bionectria ochroleuca assessed as inhibition of mycelial growth at 0.3 to 1.8 mg/ml measured every 24 hr intervals over 192 hr
Clonostachys rosea [9] = test: Toxicity against Bionectria ochroleuca I19 assessed as inhibition of mycelial growth at 0.3 to 1.8 mg/ml measured every 24 hr intervals over 192 hr
Clonostachys rosea [10] = test: Toxicity against Bionectria ochroleuca I60 assessed as inhibition of mycelial growth at 0.3 to 1.8 mg/ml measured every 24 hr intervals over 192 hr
Clonostachys rosea [11] = test: Toxicity against Bionectria ochroleuca I61 assessed as inhibition of mycelial growth at 0.3 to 1.8 mg/ml measured every 24 hr intervals over 192 hr
Clonostachys rosea [12] = test: Toxicity against Bionectria ochroleuca I62 assessed as inhibition of mycelial growth at 0.3 to 1.8 mg/ml measured every 24 hr intervals over 192 hr
Clonostachys rosea [13] = test: Toxicity against Bionectria ochroleuca I60 assessed as inhibition of mycelial growth at 0.048 to 0.292 mg/ml measured every 24 hr intervals over 192 hr
Clonostachys rosea [14] = test: Toxicity against Bionectria ochroleuca I61 assessed as inhibition of mycelial growth at 0.048 to 0.292 mg/ml measured every 24 hr intervals over 192 hr
Clonostachys rosea [15] = test: Toxicity against Bionectria ochroleuca I62 assessed as inhibition of mycelial growth at 0.048 to 0.292 mg/ml measured every 24 hr intervals over 192 hr
Clonostachys rosea [16] = test: Toxicity against Bionectria ochroleuca assessed as inhibition of mycelial growth at 0.048 to 0.292 ug/ml measured every 24 hr intervals over 192 hr
Clonostachys rosea [17] = test: Toxicity against Bionectria ochroleuca I19 assessed as inhibition of mycelial growth at 0.048 to 0.292 mg/ml measured every 24 hr intervals over 192 hr
Clonostachys rosea [18] = test: Toxicity against Bionectria ochroleuca assessed as inhibition of conidial germination at 0.048 to 0.292 ug/ml measured every 24 hr intervals over 192 hr
Clonostachys rosea [19] = test: Toxicity against Bionectria ochroleuca I60 assessed as inhibition of conidial germination at 0.048 to 0.292 mg/ml measured every 24 hr intervals over 192 hr
Clonostachys rosea [20] = test: Toxicity against Bionectria ochroleuca I61 assessed as inhibition of conidial germination at 0.048 to 0.292 mg/ml measured every 24 hr intervals over 192 hr
Clonostachys rosea [21] = test: Toxicity against Bionectria ochroleuca I62 assessed as inhibition of conidial germination at 0.048 to 0.292 mg/ml measured every 24 hr intervals over 192 hr
Clonostachys rosea [22] = test: Toxicity against Bionectria ochroleuca I19 assessed as inhibition of conidial germination at 0.048 to 0.292 mg/ml measured every 24 hr intervals over 192 hr
Clonostachys rosea [23] = test: Toxicity against Bionectria ochroleuca assessed as inhibition of mycelial growth at 0.001 to 0.009 ug/ml
Clonostachys rosea [24] = test: Toxicity against Bionectria ochroleuca assessed as inhibition of conidial germination at 0.001 to 0.009 ug/ml
Clonostachys rosea [25] = test: Toxicity against Bionectria ochroleuca assessed as inhibition of mycelial growth at 0.005 to 0.033 ug/ml
Clonostachys rosea [26] = test: Toxicity against Bionectria ochroleuca assessed as inhibition of conidial germination at 0.005 to 0.033 ug/ml
Clonostachys rosea [27] = test: Toxicity against Bionectria ochroleuca assessed as inhibition of conidial germination at 0.9 to 1.13 mg/ml measured every 24 hr intervals over 192 hr
Clonostachys rosea [28] = test: Toxicity against Bionectria ochroleuca assessed as inhibition of mycelial growth at 0.9 to 1.13 mg/ml measured every 24 hr intervals over 192 hr

CC[C@H](C)[C@H]1O[C@]2(C=C[C@@H]1C)C[C@@H]1C[C@@H](C/C=C(\C)[C@@H](O[C@H]3C[C@H](OC)[C@@H](O[C@H]4C[C@H](OC)[C@@H](O)[C@H](C)O4)[C@H](C)O3)[C@@H](C)/C=C/C=C3\CO[C@@H]4[C@H](O)C(C)=C[C@@H](C(=O)O1)[C@]34O)O2.CO[C@H]1C[C@H](O[C@H]2[C@H](C)O[C@@H](O[C@@H]3/C(C)=C/C[C@@H]4C[C@@H](C[C@]5(C=C[C@H](C)[C@@H](C(C)C)O5)O4)OC(=O)[C@@H]4C=C(C)[C@@H](O)[C@H]5OC/C(=C\C=C\[C@@H]3C)[C@]54O)C[C@@H]2OC)O[C@@H](C)[C@@H]1O [ABAMECTIN]
growth inhibition (GI) (Clonostachys rosea [1]): 5.79%
growth inhibition (GI) (Clonostachys rosea [2]): 6.51%
growth inhibition (GI) (Clonostachys rosea [3]): 9.79%
growth inhibition (GI) (Clonostachys rosea [4]): 9.64%
inhibition (INH) (Clonostachys rosea [5]): 1%
growth inhibition (GI) (Clonostachys rosea [6]): 0.5%

O=C1C2CC=CCC2C(=O)N1SC(Cl)(Cl)Cl (stereo not drawn) [CAPTAN]
inhibition (INH) (Clonostachys rosea [7]): 61%
growth inhibition (GI) (Clonostachys rosea [8]): 75%
growth inhibition (GI) (Clonostachys rosea [9]): 81.8%
growth inhibition (GI) (Clonostachys rosea [10]): 82.2%
growth inhibition (GI) (Clonostachys rosea [11]): 81.8%
growth inhibition (GI) (Clonostachys rosea [12]): 86.2%

CC1(C)C(C(=O)OC(C#N)c2cccc(Oc3ccccc3)c2)C1(C)C (stereo not drawn) [FENPROPATHRIN]
growth inhibition (GI) (Clonostachys rosea [13]): 3.93%
growth inhibition (GI) (Clonostachys rosea [14]): 7.16%
growth inhibition (GI) (Clonostachys rosea [15]): 10.77%
growth inhibition (GI) (Clonostachys rosea [16]): 1%
growth inhibition (GI) (Clonostachys rosea [17]): 8.18%
inhibition (INH) (Clonostachys rosea [18]): 6%
inhibition (INH) (Clonostachys rosea [19]): 10.1%
inhibition (INH) (Clonostachys rosea [20]): 10.7%
inhibition (INH) (Clonostachys rosea [21]): 9.9%
inhibition (INH) (Clonostachys rosea [22]): 12.7%

CCCCOC(=O)[C@@H](C)Oc1ccc(Oc2ccc(C(F)(F)F)cn2)cc1 [FLUAZIFOP-P-BUTYL]
growth inhibition (GI) (Clonostachys rosea [23]): 3.6%
inhibition (INH) (Clonostachys rosea [24]): 2.2%

O=C(O)CNCP(=O)(O)O [GLYPHOSATE]
growth inhibition (GI) (Clonostachys rosea [25]): 3.6%
inhibition (INH) (Clonostachys rosea [26]): 2.2%

CC(C)NC(=O)N1CC(=O)N(c2cc(Cl)cc(Cl)c2)C1=O [IPRODIONE]
inhibition (INH) (Clonostachys rosea [27]): 55%
growth inhibition (GI) (Clonostachys rosea [28]): 79%
